Assay results as given in ChEMBL document CHEMBL4130640, “Optimizing a Weakly Binding Fragment into a Potent RORγt Inverse Agonist with Efficacy in an in Vivo Inflammation Model” (J Med Chem, 2018).
Values after ≈ are worked out from the molar mass of the structure shown.

How the values were obtained:
[1] = pampa
physchem = settings: aqueous solution, pH 6.8

In the case of `C[C@H](Oc1ncc(NC(=O)Cc2ccncc2)cc1Cl)c1ccccc1`, the “log(permeability)” value [1] is reported as -3.7 and the solubility thermodynamic (physchem) is reported as 28 µM (≈ 10.3 µg/mL).
